Test results from ChEMBL document CHEMBL4673219, “Novel 5,6-disubstituted pyrrolo[2,3-d]pyrimidine derivatives as broad spectrum antiproliferative agents: Synthesis, cell based assays, kinase profile and molecular docking study” (Bioorg Med Chem, 2018).

How the values were obtained:
[1] = target: Fibroblast growth factor receptor 2 (Homo sapiens) (UniProt P21802); test: Inhibition of human FGFR2 at 10 uM using myelin basic protein as substrate incubated for 40 mins in presence of [gamma33P]ATP by scintillation counting method relative to control
OVCAR-3 = test: Growth inhibition of human OVCAR-3 cells assessed as growth percentage at 10 uM incubated for 48 hrs by sulforhodamine B assay relative to control; format: functional; settings: read-out: Activity
NCI-H460 = test: Growth inhibition of human NCI-H460 cells assessed as growth percentage at 10 uM incubated for 48 hrs by sulforhodamine B assay relative to control; format: functional; settings: read-out: Activity
LOX IMVI = test: Growth inhibition of human LOX IMVI cells assessed as growth percentage at 0.01 uM incubated for 48 hrs by sulforhodamine B assay relative to control; format: functional; settings: read-out: Activity
SK-MEL-5 [2] = test: Growth inhibition of human SK-MEL-5 cells assessed as growth percentage at 10 uM incubated for 48 hrs by sulforhodamine B assay relative to control; format: functional; settings: read-out: Activity
K562 [3] = test: Growth inhibition of human K562 cells assessed as growth percentage at 100 uM incubated for 48 hrs by sulforhodamine B assay relative to control; format: functional; settings: read-out: Activity
786-0 = test: Growth inhibition of human 786-0 cells assessed as growth percentage at 10 uM incubated for 48 hrs by sulforhodamine B assay relative to control; format: functional; settings: read-out: Activity
SK-MEL-5 [4] = test: Growth inhibition of human SK-MEL-5 cells incubated for 48 hrs by sulforhodamine B assay; format: functional; settings: Homo sapiens
SK-MEL-5 [5] = test: Growth inhibition of human SK-MEL-5 cells assessed as growth percentage at 0.1 uM incubated for 48 hrs by sulforhodamine B assay relative to control; format: functional; settings: read-out: Activity
HT-29 [6] = test: Growth inhibition of human HT-29 cells assessed as growth percentage at 0.1 uM incubated for 48 hrs by sulforhodamine B assay relative to control; format: functional; settings: read-out: Activity
HCT-116 = test: Antiproliferative activity against human HCT-116 cells assessed as cell growth inhibition measured after 72 hrs by MTT assay; format: functional
MDA-MB-231 = test: Growth inhibition of human MDA-MB-231/ATCC cells incubated for 48 hrs by sulforhodamine B assay; format: functional
U-251 = test: Growth inhibition of human U-251 cells assessed as growth percentage at 1 uM incubated for 48 hrs by sulforhodamine B assay relative to control; format: functional; settings: read-out: Activity
CCRF-CEM [7] = test: Growth inhibition of human CCRF-CEM cells assessed as growth percentage at 10 uM incubated for 48 hrs by sulforhodamine B assay relative to control; format: functional; settings: read-out: Activity
CCRF-CEM [8] = test: Growth inhibition of human CCRF-CEM cells assessed as growth percentage at 0.01 uM incubated for 48 hrs by sulforhodamine B assay relative to control; format: functional; settings: read-out: Activity
OVCAR-4 = test: Growth inhibition of human OVCAR-4 cells assessed as growth percentage at 1 uM incubated for 48 hrs by sulforhodamine B assay relative to control; format: functional; settings: read-out: Activity
UACC-257 [9] = test: Growth inhibition of human UACC-257 cells incubated for 48 hrs by sulforhodamine B assay; format: functional
SK-OV-3 = test: Growth inhibition of human SK-OV-3 cells assessed as growth percentage at 10 uM incubated for 48 hrs by sulforhodamine B assay relative to control; format: functional; settings: read-out: Activity
K562 [10] = test: Growth inhibition of human K562 cells incubated for 48 hrs by sulforhodamine B assay; format: functional
SNB-75 = test: Growth inhibition of human SNB-75 cells assessed as growth percentage at 10 uM incubated for 48 hrs by sulforhodamine B assay relative to control; format: functional; settings: read-out: Activity
Malme-3M = test: Growth inhibition of human Malme-3M cells incubated for 48 hrs by sulforhodamine B assay; format: functional; settings: for GI50: 48 h
UACC-257 [11] = test: Growth inhibition of human UACC-257 cells assessed as growth percentage at 0.1 uM incubated for 48 hrs by sulforhodamine B assay relative to control; format: functional; settings: read-out: Activity
HCT-15 [12] = test: Growth inhibition of human HCT-15 cells assessed as growth percentage at 100 uM incubated for 48 hrs by sulforhodamine B assay relative to control; format: functional; settings: read-out: Activity
T47D [13] = test: Growth inhibition of human T47D cells assessed as growth percentage at 0.01 uM incubated for 48 hrs by sulforhodamine B assay relative to control; format: functional; settings: read-out: Activity
HCT-15 [14] = test: Growth inhibition of human HCT-15 cells assessed as growth percentage at 10 uM incubated for 48 hrs by sulforhodamine B assay relative to control; format: functional; settings: read-out: Activity
HT-29 [15] = test: Growth inhibition of human HT-29 cells assessed as growth percentage at 10 uM incubated for 48 hrs by sulforhodamine B assay relative to control; format: functional; settings: read-out: Activity
NCI-H23 = test: Growth inhibition of human NCI-H23 cells assessed as growth percentage at 10 uM incubated for 48 hrs by sulforhodamine B assay relative to control; format: functional; settings: read-out: Activity
UACC-62 = test: Growth inhibition of human UACC-62 cells assessed as growth percentage at 1 uM incubated for 48 hrs by sulforhodamine B assay relative to control; format: functional; settings: read-out: Activity
T47D [16] = test: Growth inhibition of human T47D cells assessed as growth percentage at 10 uM incubated for 48 hrs by sulforhodamine B assay relative to control; format: functional; settings: read-out: Activity
OVCAR-8 [17] = test: Growth inhibition of human OVCAR-8 cells assessed as growth percentage at 0.1 uM incubated for 48 hrs by sulforhodamine B assay relative to control; format: functional; settings: read-out: Activity
MCF7 [18] = test: Growth inhibition of human MCF7 cells assessed as growth percentage at 100 uM incubated for 48 hrs by sulforhodamine B assay relative to control; format: functional; settings: read-out: Activity
MCF7 [19] = test: Growth inhibition of human MCF7 cells assessed as growth percentage at 0.01 uM incubated for 48 hrs by sulforhodamine B assay relative to control; format: functional; settings: read-out: Activity
SK-MEL-28 = test: Growth inhibition of human SK-MEL-28 cells incubated for 48 hrs by sulforhodamine B assay; format: functional
K562 [20] = test: Growth inhibition of human K562 cells assessed as growth percentage at 0.1 uM incubated for 48 hrs by sulforhodamine B assay relative to control; format: functional; settings: read-out: Activity
NCI/ADR-RES = test: Growth inhibition of human NCI/ADR-RES cells assessed as growth percentage at 10 uM incubated for 48 hrs by sulforhodamine B assay relative to control; format: functional; settings: read-out: Activity
A549 = test: Growth inhibition of human A549/ATCC cells assessed as growth percentage at 10 uM incubated for 48 hrs by sulforhodamine B assay relative to control; format: functional; settings: read-out: Activity
OVCAR-8 [21] = test: Growth inhibition of human OVCAR-8 cells assessed as growth percentage at 1 uM incubated for 48 hrs by sulforhodamine B assay relative to control; format: functional; settings: read-out: Activity
PC-3 = test: Growth inhibition of human PC-3 cells assessed as growth percentage at 10 uM incubated for 48 hrs by sulforhodamine B assay relative to control; format: functional; settings: read-out: Activity

Fibroblast growth factor receptor 2 (Homo sapiens), sequence (P21802 22-821 limits assumed): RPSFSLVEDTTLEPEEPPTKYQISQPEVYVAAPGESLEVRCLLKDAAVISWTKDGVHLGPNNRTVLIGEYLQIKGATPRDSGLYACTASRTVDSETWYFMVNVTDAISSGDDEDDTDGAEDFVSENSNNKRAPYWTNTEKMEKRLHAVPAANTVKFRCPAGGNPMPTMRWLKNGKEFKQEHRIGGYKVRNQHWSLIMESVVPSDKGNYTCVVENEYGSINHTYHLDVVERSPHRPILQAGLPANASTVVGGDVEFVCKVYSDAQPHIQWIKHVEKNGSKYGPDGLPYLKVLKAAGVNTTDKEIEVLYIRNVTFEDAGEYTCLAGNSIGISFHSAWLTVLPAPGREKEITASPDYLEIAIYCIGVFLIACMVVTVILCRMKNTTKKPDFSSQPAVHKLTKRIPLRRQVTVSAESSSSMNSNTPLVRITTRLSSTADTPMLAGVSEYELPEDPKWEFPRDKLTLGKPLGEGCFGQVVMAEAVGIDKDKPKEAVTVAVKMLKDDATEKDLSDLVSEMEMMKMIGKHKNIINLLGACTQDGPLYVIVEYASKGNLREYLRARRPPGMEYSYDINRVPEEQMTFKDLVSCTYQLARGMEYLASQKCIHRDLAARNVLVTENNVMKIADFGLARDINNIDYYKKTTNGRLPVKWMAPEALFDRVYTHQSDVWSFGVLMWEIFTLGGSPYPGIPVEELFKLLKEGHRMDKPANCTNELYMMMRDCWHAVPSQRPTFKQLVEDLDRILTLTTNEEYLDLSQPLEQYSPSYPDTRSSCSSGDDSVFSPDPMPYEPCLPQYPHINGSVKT

CCCCCCCC(=O)Nc1nc2[nH]c(CN3CCN(Cc4cccc(F)c4)CC3)c(CN3CCN(Cc4cccc(F)c4)CC3)c2c(=O)[nH]1
inhibition [1]: 25.9%
growth at 10 µM (OVCAR-3): -95%
growth at 10 µM (NCI-H460): -82.3%
growth at 0.01 µM (LOX IMVI): 87%
growth at 10 µM (SK-MEL-5 [2]): 33.5%
growth at 100 µM (K562 [3]): -1%
growth at 10 µM (786-0): -100%
GI50 (SK-MEL-5 [4]; SK-MEL-5): 1570 nM
TGI (SK-MEL-5 [4]; SK-MEL-5): 3030 nM
CC50 (SK-MEL-5 [4]; SK-MEL-5, 48 h, read-out: LC50 (the source's name)): 5870 nM
growth at 0.1 µM (SK-MEL-5 [5]): 101%
growth at 0.1 µM (HT-29 [6]): 104%
GI50 (HCT-116): 2250 nM
GI50 (MDA-MB-231; 48 h): 590 nM
TGI (MDA-MB-231; Homo sapiens, MDA-MB-231): 1960 nM
GI50 (MDA-MB-231; Homo sapiens, MDA-MB-231, 48 h): 587 nM
CC50 (MDA-MB-231; Homo sapiens, MDA-MB-231, read-out: LC50 (the source's name)): 5380 nM
growth at 1 µM (U-251): -88%
growth at 10 µM (CCRF-CEM [7]): -25.8%
growth at 0.01 µM (CCRF-CEM [8]): 98%
growth at 1 µM (OVCAR-4): 63%
GI50 (UACC-257 [9]; 48 h): 200 nM
TGI (UACC-257 [9]; 48 h): 460 nM
GI50 (UACC-257 [9]; Homo sapiens, UACC-257, 48 h): 203 nM
LC50 (concentration killing 50% of cells) (UACC-257 [9]; Homo sapiens, UACC-257, 48 h): 1090 nM
TGI (UACC-257 [9]; Homo sapiens, UACC-257, 48 h): 456 nM
growth at 10 µM (SK-OV-3): -61%
GI50 (K562 [10]; 48 h): 210 nM
LC50 (concentration killing 50% of cells) (K562 [10]; 48 h): > 100000 nM
TGI (K562 [10]; 48 h): 550 nM
GI50 (K562 [10]; Homo sapiens, K562, 48 h): 205 nM
LC50 (concentration killing 50% of cells) (K562 [10]; Homo sapiens, K562, 48 h): 100000 nM
TGI (K562 [10]; Homo sapiens, K562, 48 h): 545 nM
growth at 10 µM (SNB-75): -99.2%
GI50 (Malme-3M): 670 nM
TGI (Malme-3M; Homo sapiens, Malme-3M): 2240 nM
GI50 (Malme-3M; Homo sapiens, Malme-3M): 672 nM
CC50 (Malme-3M; Homo sapiens, Malme-3M, read-out: LC50 (the source's name)): 6110 nM
growth at 0.1 µM (UACC-257 [11]): 94%
growth at 100 µM (HCT-15 [12]): -85%
growth at 0.01 µM (T47D [13]): 95%
growth at 10 µM (HCT-15 [14]): -70.8%
growth at 10 µM (HT-29 [15]): -69.7%
growth at 10 µM (NCI-H23): -53.8%
growth at 1 µM (UACC-62): 92%
growth at 10 µM (T47D [16]): -84.2%
growth at 0.1 µM (OVCAR-8 [17]): 103%
growth at 100 µM (MCF7 [18]): -63%
growth at 0.01 µM (MCF7 [19]): 91%
GI50 (SK-MEL-28): 1790 nM
TGI (SK-MEL-28): 3620 nM
growth at 0.1 µM (K562 [20]): 87%
growth at 10 µM (NCI/ADR-RES): -66.1%
growth at 10 µM (A549): -74.7%
growth at 1 µM (OVCAR-8 [21]): -66%
growth at 10 µM (PC-3): -95.1%
